Results taken from ChEMBL document CHEMBL1145876, “New arylpiperazine derivatives with high affinity for alpha1A, D2 and 5-HT2A receptors” (Bioorg Med Chem Lett, 2003).
pKi: −log10 of the molar value.

Legend:
[1] = biological target: 5-hydroxytryptamine receptor 2A (Rattus norvegicus, UniProt P14842); assay: Binding affinity towards 5-hydroxytryptamine 2A receptor using [3H]ketanserin
[2] = biological target: D(2) dopamine receptor (Rattus norvegicus, UniProt P61169); assay: Binding affinity towards Dopamine receptor D2 in rat […] using [3H]spiperone; format: tissue-based
Sequence of D(2) dopamine receptor (P61169 whole entry): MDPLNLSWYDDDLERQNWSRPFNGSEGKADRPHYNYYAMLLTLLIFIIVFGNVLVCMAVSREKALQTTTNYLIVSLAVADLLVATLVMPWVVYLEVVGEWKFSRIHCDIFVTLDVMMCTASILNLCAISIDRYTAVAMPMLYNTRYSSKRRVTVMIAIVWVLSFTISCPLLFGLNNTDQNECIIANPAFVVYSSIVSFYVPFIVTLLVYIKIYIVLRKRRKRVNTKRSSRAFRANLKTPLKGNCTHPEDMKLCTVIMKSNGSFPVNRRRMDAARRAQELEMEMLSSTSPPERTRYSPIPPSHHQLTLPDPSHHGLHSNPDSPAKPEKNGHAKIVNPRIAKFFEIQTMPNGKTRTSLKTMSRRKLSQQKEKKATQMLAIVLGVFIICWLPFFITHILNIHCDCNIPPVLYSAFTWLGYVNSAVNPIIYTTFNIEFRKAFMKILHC

Sequence of 5-hydroxytryptamine receptor 2A (P14842 whole entry): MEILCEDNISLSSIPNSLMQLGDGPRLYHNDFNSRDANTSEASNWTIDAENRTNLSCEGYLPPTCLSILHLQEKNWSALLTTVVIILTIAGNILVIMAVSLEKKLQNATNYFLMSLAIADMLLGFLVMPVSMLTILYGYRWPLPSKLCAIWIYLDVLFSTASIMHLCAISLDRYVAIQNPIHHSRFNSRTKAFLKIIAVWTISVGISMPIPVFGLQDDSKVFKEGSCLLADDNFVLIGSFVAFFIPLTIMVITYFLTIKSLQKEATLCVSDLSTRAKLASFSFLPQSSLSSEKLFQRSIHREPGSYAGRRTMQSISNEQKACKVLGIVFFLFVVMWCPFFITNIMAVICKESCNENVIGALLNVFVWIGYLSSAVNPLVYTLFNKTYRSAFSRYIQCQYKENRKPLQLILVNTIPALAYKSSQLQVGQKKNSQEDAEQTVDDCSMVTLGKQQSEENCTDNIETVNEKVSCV

SMILES	pKi [1]	pKi [2]
COc1ccccc1N1CCN(CCCOc2ccc3c(OC)cc(=O)oc3c2)CC1	5.51	7.75
COc1cc(=O)oc2cc(OCCCN3CCN(c4ccccn4)CC3)ccc12	6.27	6.89
COc1ccccc1N1CCN(CCCOc2ccc3c(C)cc(=O)oc3c2)CC1	6.76	7.93

Continued by rising pKi [1], values first:

pKi [1]	pKi [2]	SMILES
5.63	6.49	Cc1cc(=O)oc2cc(OCCCN3CCN(c4ncccn4)CC3)ccc12
5.71	6.25	COc1cc(=O)oc2cc(OCCCN3CCN(c4ccccc4)CC3)ccc12
5.97	7.09	Cc1cc(=O)oc2cc(OCCCN3CCN(c4ccccn4)CC3)ccc12
6.03	7.34	Cc1cc(=O)oc2cc(OCCCN3CCN(c4ccccc4)CC3)ccc12
6.86	7.32	COc1cc(=O)oc2cc(OCCCN3CCN(c4ncccn4)CC3)ccc12
